# Experimental data published in PubChem BioAssay (NCI).
#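 Cultured in 96-well plates, cells were exposed to test compound for 48 hours across five concentrations. TGI denotes the concentration required for complete inhibition of growth.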 Where a SMILES comes first, the peptide text is derived from it. The star is where a group is joined. Boc = CC(C)(C)OC(=O)*
# Key:
# Test in all cases: NCI-60 cell line screen, 48 h
# A549 NSCLC = tested on: A549 NSCLC
# SK-MEL-5 melanoma = tested on: SK-MEL-5 melanoma
# U251 CNS = tested on: U251 CNS
# OVCAR-3 ovarian = tested on: OVCAR-3 ovarian
# HL-60(TB) leukemia = tested on: HL-60(TB) leukemia
# LOX IMVI melanoma = tested on: LOX IMVI melanoma
# MALME-3M melanoma = tested on: MALME-3M melanoma
# HCC-2998 colon = tested on: HCC-2998 colon
# MCF7 breast = tested on: MCF7 breast
# CCRF-CEM leukemia = tested on: CCRF-CEM leukemia
# SK-MEL-28 melanoma = tested on: SK-MEL-28 melanoma
# SW-620 colon = tested on: SW-620 colon
# HOP-62 NSCLC = tested on: HOP-62 NSCLC
# NCI-H522 lung = tested on: NCI-H522 lung
# SNB-19 CNS = tested on: SNB-19 CNS
# IGROV1 ovarian = tested on: IGROV1 ovarian
# MDA-MB-435 = tested on: MDA-MB-435
# HT29 colon = tested on: HT29 colon
# TK-10 renal = tested on: TK-10 renal
# DU-145 prostate = tested on: DU-145 prostate
# MDA-N = tested on: MDA-N
# A498 renal = tested on: A498 renal
# MDA-MB-231 breast = tested on: MDA-MB-231 breast
# SNB-75 CNS = tested on: SNB-75 CNS
# NCI-H460 lung = tested on: NCI-H460 lung
# RPMI-8226 leukemia = tested on: RPMI-8226 leukemia
# OVCAR-8 ovarian = tested on: OVCAR-8 ovarian
# PC-3 prostate = tested on: PC-3 prostate
# MOLT-4 leukemia = tested on: MOLT-4 leukemia
# K-562 leukemia = tested on: K-562 leukemia
# SR leukemia = tested on: SR leukemia
# OVCAR-5 ovarian = tested on: OVCAR-5 ovarian
# T-47D breast = tested on: T-47D breast
# UO-31 renal = tested on: UO-31 renal
# SK-MEL-2 melanoma = tested on: SK-MEL-2 melanoma
# UACC-62 melanoma = tested on: UACC-62 melanoma
# SF-268 CNS = tested on: SF-268 CNS
# NCI-H23 lung = tested on: NCI-H23 lung
# HCT-116 colon = tested on: HCT-116 colon
# SN12C renal = tested on: SN12C renal
# OVCAR-4 ovarian = tested on: OVCAR-4 ovarian
# UACC-257 melanoma = tested on: UACC-257 melanoma
# 786-0 renal = tested on: 786-0 renal
# BT-549 breast = tested on: BT-549 breast
# ACHN renal = tested on: ACHN renal
# NCI-H226 lung = tested on: NCI-H226 lung
# M14 melanoma = tested on: M14 melanoma
# KM12 colon = tested on: KM12 colon
# RXF 393 renal = tested on: RXF 393 renal
# EKVX NSCLC = tested on: EKVX NSCLC
# HS 578T breast = tested on: HS 578T breast
# SF-539 CNS = tested on: SF-539 CNS
# CAKI-1 renal = tested on: CAKI-1 renal
# HCT-15 colon = tested on: HCT-15 colon
# SF-295 CNS = tested on: SF-295 CNS
compound,measurement,setting,value
CC(C)(C)OC(=O)NC(Cc1ccc(O)cc1)C(=O)NC(CCCCN)C(=O)O (stereo not drawn) (Boc-Tyr-Lys-OH; configuration not given here),TGI,A549 NSCLC,> 100 µM
same,TGI,SK-MEL-5 melanoma,> 100 µM
same,TGI,U251 CNS,43.5 µM
same,TGI,OVCAR-3 ovarian,66.3 µM
same,TGI,HL-60(TB) leukemia,52.8 µM
same,TGI,LOX IMVI melanoma,28.2 µM
same,TGI,MALME-3M melanoma,76.6 µM
same,TGI,HCC-2998 colon,65.3 µM
same,TGI,MCF7 breast,> 100 µM
same,TGI,CCRF-CEM leukemia,92.7 µM
same,TGI,SK-MEL-28 melanoma,56.1 µM
same,TGI,SW-620 colon,> 100 µM
same,TGI,HOP-62 NSCLC,39 µM
same,TGI,NCI-H522 lung,26.5 µM
same,TGI,SNB-19 CNS,53.2 µM
same,TGI,IGROV1 ovarian,37.1 µM
same,TGI,MDA-MB-435,> 100 µM
same,TGI,HT29 colon,> 100 µM
same,TGI,TK-10 renal,> 100 µM
same,TGI,DU-145 prostate,80.3 µM
same,TGI,MDA-N,> 100 µM
same,TGI,A498 renal,92.4 µM
same,TGI,MDA-MB-231 breast,61.8 µM
same,TGI,SNB-75 CNS,77 µM
same,TGI,NCI-H460 lung,66.2 µM
same,TGI,RPMI-8226 leukemia,84.5 µM
same,TGI,OVCAR-8 ovarian,> 100 µM
same,TGI,PC-3 prostate,> 100 µM
same,TGI,MOLT-4 leukemia,94.7 µM
same,TGI,K-562 leukemia,> 100 µM
same,TGI,SR leukemia,77.3 µM
same,TGI,OVCAR-5 ovarian,84.9 µM
same,TGI,T-47D breast,53.1 µM
same,TGI,UO-31 renal,54 µM
same,TGI,SK-MEL-2 melanoma,35.1 µM
same,TGI,UACC-62 melanoma,31.5 µM
same,TGI,SF-268 CNS,> 100 µM
same,TGI,NCI-H23 lung,48.6 µM
same,TGI,HCT-116 colon,40.9 µM
same,TGI,SN12C renal,42.3 µM
same,TGI,OVCAR-4 ovarian,48.1 µM
same,TGI,UACC-257 melanoma,83.5 µM
same,TGI,786-0 renal,> 100 µM
same,TGI,BT-549 breast,80.5 µM
same,TGI,ACHN renal,65.1 µM
same,TGI,NCI-H226 lung,> 100 µM
same,TGI,M14 melanoma,56 µM
O=C(c1cc(Cl)ccc1Cl)N1CCN(c2cccc(Cl)c2)CC1,TGI,KM12 colon,20 µM
same,TGI,A549 NSCLC,42.6 µM
same,TGI,RXF 393 renal,27.5 µM
same,TGI,EKVX NSCLC,96.5 µM
same,TGI,SK-MEL-5 melanoma,19.3 µM
same,TGI,U251 CNS,62 µM
same,TGI,OVCAR-3 ovarian,38 µM
same,TGI,HL-60(TB) leukemia,> 100 µM
same,TGI,LOX IMVI melanoma,25.5 µM
same,TGI,MALME-3M melanoma,28.6 µM
same,TGI,HCC-2998 colon,39.5 µM
same,TGI,MCF7 breast,> 100 µM
same,TGI,CCRF-CEM leukemia,59.7 µM
same,TGI,SK-MEL-28 melanoma,81.9 µM
same,TGI,SW-620 colon,94.8 µM
same,TGI,HOP-62 NSCLC,61.5 µM
same,TGI,NCI-H522 lung,30.4 µM
same,TGI,SNB-19 CNS,> 100 µM
same,TGI,IGROV1 ovarian,56.8 µM
same,TGI,HT29 colon,27.1 µM
same,TGI,HS 578T breast,65.8 µM
same,TGI,TK-10 renal,> 100 µM
same,TGI,SF-539 CNS,31.4 µM
same,TGI,DU-145 prostate,> 100 µM
same,TGI,MDA-N,5.62 µM
same,TGI,A498 renal,34.8 µM
same,TGI,MDA-MB-231 breast,20.3 µM
same,TGI,SNB-75 CNS,> 100 µM
same,TGI,NCI-H460 lung,31.5 µM
same,TGI,CAKI-1 renal,> 100 µM
same,TGI,RPMI-8226 leukemia,> 100 µM
same,TGI,OVCAR-8 ovarian,38.9 µM
same,TGI,PC-3 prostate,6.22 µM
same,TGI,MOLT-4 leukemia,37 µM
same,TGI,K-562 leukemia,16.2 µM
same,TGI,SR leukemia,> 100 µM
same,TGI,OVCAR-5 ovarian,> 100 µM
same,TGI,T-47D breast,> 100 µM
same,TGI,UO-31 renal,58.9 µM
same,TGI,SF-268 CNS,> 100 µM
same,TGI,NCI-H23 lung,> 100 µM
same,TGI,HCT-116 colon,24.1 µM
same,TGI,SN12C renal,20.2 µM
same,TGI,OVCAR-4 ovarian,> 100 µM
same,TGI,UACC-257 melanoma,50.3 µM
same,TGI,786-0 renal,34 µM
same,TGI,HCT-15 colon,> 100 µM
same,TGI,SF-295 CNS,25.6 µM
same,TGI,BT-549 breast,23.1 µM
same,TGI,ACHN renal,76.5 µM
same,TGI,NCI-H226 lung,42.6 µM
same,TGI,M14 melanoma,> 100 µM
